Converted amounts (≈) assume the structure as drawn. Like-named read-outs stand apart in the source and are kept apart here.
Experiments:
M. abscessus ATCC 19977 = experiment: MIC assay in 96-well plate format, wild-type strain; format: cell-based, Mycobacterium abscessus; details: for MICWT: Table 10
Summary of the method: (§1)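 Two-fold, ten-point dilutions in 7H9 with 2% DMSO; mid-log culture diluted to OD600=0.1 (1×10^7 CFU/mL). Incubated 3 days at 37 °C, shaking 110 RPM; growth = Day 3 minus Day 0 OD600, expressed as percentage of drug-free growth and plotted against concentration. Two biological replicates.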

Δarr M. abscessus = experiment: MIC assay, isogenic arr-deleted strain; format: cell-based, Mycobacterium abscessus; details: Table 10
Summary of the method: as §1

[1] = Plasma protein binding assay (rapid equilibrium dialysis); format: in vitro ADME
Summary of the method: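 Rapid equilibrium dialysis ran 4 h at 37° C (300 RPM) with compound-spiked plasma (10,000 ng/mL) on one side and PBS on the other. Each side was then mixed 1:1 […] to equalise matrix before LC-MS/MS quantification.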

Mycobacterium abscessus = experiment: MIC against Mycobacterium abscessus (strain not given); format: cell-based
[2] = Mouse pharmacokinetics studies; format: in vivo, CD-1 mice; details: for AUCp.o.: po
Method: Blood was captured in CB300 blood collection tubes containing K2EDTA and stored on ice. Plasma was recovered after centrifugation and stored at −80° C. until analyzed by high pressure liquid chromatography coupled to tandem mass spectrometry (LC-MS/MS). Pharmacokinetic parameters were calculated using non-compartmental pharmacokinetic analysis. […] Extracts were vortexed for 5 minutes and centrifuged at 4000 RPM for 5 minutes. 75 μL of supernatant was transferred for LC-MS/MS analysis and diluted with 75 μL of Milli-Q deionized water. Rifabutin was purchased from Carbosynth. C25-desacetyl rifabutin and rifabutin-d7 were purchased from Toronto Research Chemical. Verapamil was purchased from Sigma-Aldrich. […] Multiple-reaction monitoring of parent/daughter transitions in electrospray positive-ionization mode was used to quantify all analytes. […] Data processing was performed using Analyst software (version 1.6.2; Applied Biosystems Sciex).

[3] = Mycobacteroides abscessus, 72 h, Table 22, read-out: MICMab
[4] = Mycobacteroides abscessus, ATCC19977, Table 15, heterocyclic aromatic carbamates, read-out: WT Mab MIC
[5] = Mycobacteroides abscessus, ATCC19977, Mycobacterium abscessus ATCC 19977, Table 11, read-out: MIC

Method for CYP3A4: The threshold cycle (CT) was measured for each isoform cDNA by real time qRT-PCR. The mRNA level of each isoform was assessed by the relative quantifiation with reference gene (GAPDH) as the normalizer method. The normalized fold induction was calculated by 2^−ΔΔCT method, in which 0.1% DMSO was used as the reference (vehicle control). The induction potential of each test compound was analyzed by comparing its fold induction to a pre-determined cutoff value for each lot of hepatocytes. The hepatocytes lots used in this study were validated using 10 known inducers and 5 known non-inducers for each isozyme. A cutoff value is determined based on the validation study for each hepatocytes lot.

| Compound | MICWT (M. abscessus ATCC 19977) | MICΔorr (Δarr M. abscessus) | MIC (Mycobacterium abscessus; [3]) | CYP3A4 gene fold-induction at 10 μM (CYP3A4; human, 10 μM) | ƒu [1] | plasma unbound fraction ([1]; plasma) | MIC (Mycobacterium abscessus; Table 13, read-out: Mab MIC) | other results |
| --- | --- | --- | --- | --- | --- | --- | --- | --- |
| CO[C@H]1/C=C/O[C@@]2(C)Oc3c(C)c(O)c4c(c3C2=O)C2=NC3(CCN(CC(C)C)CC3)NC2=C(NC(=O)/C(C)=C/C=C/[C@H](C)[C@H](O)[C@@H](C)[C@@H](O)[C@@H](C)[C@H](OC(=O)c2ccccc2)[C@@H]1C)C4=O [UMN7] | 0.053 µM | 0.059 µM | 0.053 µM (≈ 0.0482 µg/mL) | 8.6 |  |  |  | fraction unbound at 4 h, 10000 ng/mL ([1]; plasma): 0.0003 |
| CO[C@H]1/C=C/O[C@@]2(C)Oc3c(C)c(O)c4c(c3C2=O)C2=NC3(CCN(CC(C)C)CC3)NC2=C(NC(=O)/C(C)=C/C=C/[C@H](C)[C@H](O)[C@@H](C)[C@@H](O)[C@@H](C)[C@H](OC(=O)NC2CCN(Cc3ccccc3)CC2)[C@@H]1C)C4=O [UMN15] | 0.013 µM | 0.028 µM |  |  | 0.2% | 0.19% |  | MIC (M. abscessus ATCC 19977; Table 14, carbamate analogs, read-out: WT Mab MIC): 0.013 µM (≈ 0.0133 µg/mL); ƒAUC/MIC ([2]; Table 18): 0.8; CL ([2]; mouse, in vivo): 6.40 mL/min/kg; F ([2]; mouse, in vivo): 35%; Vd ([2]; mouse, in vivo): 5.92 L/kg; AUCp.o. ([2]; mouse, in vivo): 5658 ng·h/mL; MIC (Mycobacterium abscessus; Table 22, read-out: MICMab): 0.013 µM (≈ 0.0133 µg/mL); CYP3A4 gene fold-induction at 10 μM (CYP3A4): 1.2 |
| CO[C@H]1/C=C/O[C@@]2(C)Oc3c(C)c(O)c4c(c3C2=O)C2=NC3(CCN(CC(C)C)CC3)NC2=C(NC(=O)/C(C)=C/C=C/[C@H](C)[C@H](O)[C@@H](C)[C@@H](O)[C@@H](C)[C@H](OC(=O)NC2CC(C)(C)NC(C)(C)C2)[C@@H]1C)C4=O [UMN32] | 0.04 µM | 0.09 µM | 0.04 µM (≈ 0.0395 µg/mL) | 0.6 |  |  |  | MIC (M. abscessus ATCC 19977; Mycobacteroides abscessus, ATCC19977, Table 14, carbamate analogs, read-out: WT Mab MIC): 0.04 µM (≈ 0.0395 µg/mL); ƒu ([1]; 4 h, 10000 ng/mL): 6.7%; fraction unbound at 4 h, 10000 ng/mL ([1]; plasma): 0.067 |
| CO[C@H]1/C=C/O[C@@]2(C)Oc3c(C)c(O)c4c(c3C2=O)C2=NC3(CCN(CC(C)C)CC3)NC2=C(NC(=O)/C(C)=C/C=C/[C@H](C)[C@H](O)[C@@H](C)[C@@H](O)[C@@H](C)[C@H](OC(=O)c2ccccn2)[C@@H]1C)C4=O [UMN48] | 0.02 µM | 0.026 µM |  |  | 3.0% | 2.95% | 0.02 µM (≈ 0.0182 µg/mL) |  |
| CO[C@H]1/C=C/O[C@@]2(C)Oc3c(C)c(O)c4c(c3C2=O)C2=NC3(CCN(CC(C)C)CC3)NC2=C(NC(=O)/C(C)=C/C=C/[C@H](C)[C@H](O)[C@@H](C)[C@@H](O)[C@@H](C)[C@H](OC(=O)c2ccnnc2)[C@@H]1C)C4=O [UMN49] | 0.033 µM | 0.034 µM |  |  | 8.2% | 8.22% | 0.033 µM (≈ 0.0301 µg/mL) |  |
| CO[C@H]1/C=C/O[C@@]2(C)Oc3c(C)c(O)c4c(c3C2=O)C2=NC3(CCN(CC(C)C)CC3)NC2=C(NC(=O)/C(C)=C/C=C/[C@H](C)[C@H](O)[C@@H](C)[C@@H](O)[C@@H](C)[C@H](OC(=O)c2ccncn2)[C@@H]1C)C4=O [UMN50] | 0.035 µM | 0.036 µM |  |  | 7.2% | 7.22% | 0.035 µM (≈ 0.0319 µg/mL) |  |
| CO[C@H]1/C=C/O[C@@]2(C)Oc3c(C)c(O)c4c(c3C2=O)C2=NC3(CCN(CC(C)C)CC3)NC2=C(NC(=O)/C(C)=C/C=C/[C@H](C)[C@H](O)[C@@H](C)[C@@H](O)[C@@H](C)[C@H](OC(=O)c2cnccn2)[C@@H]1C)C4=O [UMN51] | 0.03 µM | 0.027 µM |  |  | 7.0% | 6.96% | 0.03 µM (≈ 0.0273 µg/mL) |  |
| CO[C@H]1/C=C/O[C@@]2(C)Oc3c(C)c(O)c4c(c3C2=O)C2=NC3(CCN(CC(C)C)CC3)NC2=C(NC(=O)/C(C)=C/C=C/[C@H](C)[C@H](O)[C@@H](C)[C@@H](O)[C@@H](C)[C@H](OC(=O)C2CCC2)[C@@H]1C)C4=O [UMN80] | 1.2 µM | 0.026 µM |  |  | 0.3% | 0.29% | 1.2 µM (≈ 1.06 µg/mL) |  |
| CO[C@H]1/C=C/O[C@@]2(C)Oc3c(C)c(O)c4c(c3C2=O)C2=NC3(CCN(CC(C)C)CC3)NC2=C(NC(=O)/C(C)=C/C=C/[C@H](C)[C@H](O)[C@@H](C)[C@@H](O)[C@@H](C)[C@H](OC(=O)C2CCCC2)[C@@H]1C)C4=O [UMN81] | 1.2 µM | 0.03 µM |  |  | 0.05% | 0.05% | 1.2 µM (≈ 1.08 µg/mL) |  |
| CO[C@H]1/C=C/O[C@@]2(C)Oc3c(C)c(O)c4c(c3C2=O)C2=NC3(CCN(CC(C)C)CC3)NC2=C(NC(=O)/C(C)=C/C=C/[C@H](C)[C@H](O)[C@@H](C)[C@@H](O)[C@@H](C)[C@H](OC(=O)C2CCCCC2)[C@@H]1C)C4=O [UMN82] | 0.54 µM | 0.05 µM |  |  | 0.03% | 0.03% | 1.1 µM (≈ 1.01 µg/mL) |  |
| CO[C@H]1/C=C/O[C@@]2(C)Oc3c(C)c(O)c4c(c3C2=O)C2=NC3(CCN(CC(C)C)CC3)NC2=C(NC(=O)/C(C)=C/C=C/[C@H](C)[C@H](O)[C@@H](C)[C@@H](O)[C@@H](C)[C@H](OC(=O)c2cscn2)[C@@H]1C)C4=O [UMN94] |  |  |  |  | 2.9% |  | 0.036 µM (≈ 0.033 µg/mL) | CL ([2]; mouse, in vivo): 5.0 mL/min/kg; F ([2]; mouse, in vivo): 77%; Vd ([2]; mouse, in vivo): 1.22 L/kg; ƒAUC/MIC ([2]; mouse, in vivo): 22.4; AUCp.o. ([2]; mouse, in vivo): 25765 ng·h/mL |
| CO[C@H]1/C=C/O[C@@]2(C)Oc3c(C)c(O)c4c(c3C2=O)C2=NC3(CCN(CC(C)C)CC3)NC2=C(NC(=O)/C(C)=C/C=C/[C@H](C)[C@H](O)[C@@H](C)[C@@H](O)[C@@H](C)[C@H](OC(=O)Nc2ccncn2)[C@@H]1C)C4=O [UMN118] |  |  | 0.032 µM (≈ 0.0296 µg/mL) | 2.0 |  |  |  | MIC (M. abscessus ATCC 19977; [4]): 0.032 µM (≈ 0.0296 µg/mL); ƒu ([1]; 4 h, 10000 ng/mL): 5.1% |
| CO[C@H]1/C=C/O[C@@]2(C)Oc3c(C)c(O)c4c(c3C2=O)C2=NC3(CCN(CC(C)C)CC3)NC2=C(NC(=O)/C(C)=C/C=C/[C@H](C)[C@H](O)[C@@H](C)[C@@H](O)[C@@H](C)[C@H](OC(=O)Nc2cnccn2)[C@@H]1C)C4=O [UMN120] |  |  |  |  | 4.2% |  |  | MIC (M. abscessus ATCC 19977; Table 15, heterocyclic aromatic carbamates, read-out: WT Mab MIC): 0.028 µM (≈ 0.0259 µg/mL); F ([2]; mouse, in vivo): 73%; ƒAUC/MIC ([2]; mouse, in vivo): 88.8; AUCp.o. ([2]; mouse, in vivo): 55072 ng·h/mL; plasma unbound (ƒu, %) ([1]; plasma): 4.2%; MIC (Mycobacterium abscessus; Table 22, read-out: MICMab): 0.028 µM (≈ 0.0259 µg/mL); MIC (Mycobacterium abscessus; against Mycobacterium abscessus, Table 19, read-out: MIC): 0.028 µM (≈ 0.0259 µg/mL); CYP3A4 gene fold-induction at 10 μM (CYP3A4): 0.7 |
| CO[C@H]1/C=C/O[C@@]2(C)Oc3c(C)c(O)c4c(c3C2=O)C2=NC3(CCN(CC(C)C)CC3)NC2=C(NC(=O)/C(C)=C/C=C/[C@H](C)[C@H](O)[C@@H](C)[C@@H](O)[C@@H](C)[C@H](OC(=O)Nc2cccnn2)[C@@H]1C)C4=O [UMN121] |  |  | 0.038 µM (≈ 0.0352 µg/mL) | 2.7 |  |  |  | MIC (M. abscessus ATCC 19977; [5]): 0.038 µM (≈ 0.0352 µg/mL) |
| CO[C@H]1/C=C/O[C@@]2(C)Oc3c(C)c(O)c4c(c3C2=O)C2=NC3(CCN(CC(C)C)CC3)NC2=C(NC(=O)/C(C)=C/C=C/[C@H](C)[C@H](O)[C@@H](C)[C@@H](O)[C@@H](C)[C@H](OC(=O)Nc2ccn3nccc3c2)[C@@H]1C)C4=O [UMN123] |  |  | 0.051 µM (≈ 0.0492 µg/mL) | 1.2 |  |  |  |  |
| CO[C@H]1/C=C/O[C@@]2(C)Oc3c(C)c(O)c4c(c3C2=O)C2=NC3(CCN(CC(C)C)CC3)NC2=C(NC(=O)/C(C)=C/C=C/[C@H](C)[C@H](O)[C@@H](C)[C@@H](O)[C@@H](C)[C@H](OC(=O)Nc2cccn3ccnc23)[C@@H]1C)C4=O [UMN125] |  |  | 0.03 µM (≈ 0.0289 µg/mL) | 3.6 |  |  |  |  |
| CO[C@H]1/C=C/O[C@@]2(C)Oc3c(C)c(O)c4c(c3C2=O)C2=NC3(CCN(CC(C)C)CC3)NC2=C(NC(=O)/C(C)=C/C=C/[C@H](C)[C@H](O)[C@@H](C)[C@@H](O)[C@@H](C)[C@H](OC(=O)Nc2c(C)nc3ccccn23)[C@@H]1C)C4=O [UMN131] |  |  | 0.049 µM (≈ 0.0479 µg/mL) | 3.0 |  |  |  | MIC (M. abscessus ATCC 19977; [5]): 0.049 µM (≈ 0.0479 µg/mL) |
| CO[C@H]1/C=C/O[C@@]2(C)Oc3c(C)c(O)c4c(c3C2=O)C2=NC3(CCN(CC(C)C)CC3)NC2=C(NC(=O)/C(C)=C/C=C/[C@H](C)[C@H](O)[C@@H](C)[C@@H](O)[C@@H](C)[C@H](OC(=O)Nc2cscn2)[C@@H]1C)C4=O [UMN132] |  |  | 0.026 µM (≈ 0.0242 µg/mL) | 1.4 |  |  |  | MIC (M. abscessus ATCC 19977; [4]): 0.026 µM (≈ 0.0242 µg/mL); ƒu ([1]; 4 h, 10000 ng/mL): 1.7% |
| CO[C@H]1/C=C/O[C@@]2(C)Oc3c(C)c(O)c4c(c3C2=O)C2=NC3(CCN(CC(C)C)CC3)NC2=C(NC(=O)/C(C)=C/C=C/[C@H](C)[C@H](O)[C@@H](C)[C@@H](O)[C@@H](C)[C@H](OC(=O)Nc2cncs2)[C@@H]1C)C4=O [UMN133] |  |  | 0.046 µM (≈ 0.0428 µg/mL) | 1.7 |  |  |  | MIC (M. abscessus ATCC 19977; [4]): 0.046 µM (≈ 0.0428 µg/mL); ƒu ([1]; 4 h, 10000 ng/mL): 3.0% |

Reference: patent publication US20260109712A1, “RIFAMYCINS FOR NONTUBERCULOUS MYCOBACTERIA” (priority 2022, published 2026)
